Bridge positions count the residues as written; N and C are the ends. Peptide text beside a SMILES is read from it.

The test concerns human embryonic lung fibroblasts. Kind of test: Growth promoting activity in human embryonic lung fibroblasts, cell counting in a counting chamber. It is filed as cell-based. The following applies: for Growth stimulation in %: per cent increase over basal value with 0.67% calf serum; for No. of cells × 10^6: 0.67% calf serum. As to the method: Tests of the growth promoting activity have been performed in human embryonic lung fibroblasts and the growth promoting activity is measured by cell counting in a counting chamber and expressed as per cent increase over a basal value obtained with using 0.67% calf serum.

As for `C[C@@H](O)[C@H](NC(=O)[C@@H]1CSSC[C@H](NC(=O)[C@H](CO)NC(=O)[C@H](CCC(=O)O)NC(=O)[C@H](CCC(N)=O)NC(=O)[C@@H](N)CC(=O)O)C(=O)N[C@@H](CCCCN)C(=O)NCC(=O)N[C@@H](CCCNC(=N)N)C(=O)N1)C(=O)N[C@@H](CCC(=O)O)C(=O)NCC(=O)N[C@@H](Cc1ccccc1)C(=O)O` [tridecapeptide (cyclic)] (H-DQESCKGRCTEGF-OH; disulfide 5-9), the “Growth stimulation in %” value by setting is: (1 μg per ml medium) 14%; (5 μg per ml medium) 66%; (10 μg per ml medium) 60%; (25 μg per ml medium) 51%; (50 μg per ml medium) 31%. Further, the “No. of cells × 10^6” value reads like this: (1 μg tridecapeptide per ml medium) 2.35 × 10^6; (5 μg tridecapeptide per ml medium) 3.4 × 10^6; (10 μg tridecapeptide per ml medium) 3.3 × 10^6; (25 μg tridecapeptide per ml medium) 3.1 × 10^6; (50 μg tridecapeptide per ml medium) 2.7 × 10^6. Besides, the “Effect on total number of cells produced” value reads like this: (dosages higher than 10 μug. per ml. of medium) “slight inhibitory effect”; (dosages of from 1 to 10 μug. of polypeptide per ml. of medium) “dose related increase”.

Source of the values: patent US4058512A, “Synthetic peptides having growth promoting activity” (AB Kabi, priority 1975, dated 1977).
